Laboratory results from patent US10456339B2, “Organic hydroperoxide reduction in perfumery raw materials” (FIRMENICH SA, priority 2017, dated 2019).
“And” between values parts separate entries of the source, which are not always exact repeats. Identical values can stand only once.

Key:
[1] = Reduction of POV in sunflower oil using 2-oxovaleric acid; conditions: 250 μL in 25 mL sunflower oil
Procedure: 25 mL of sunflower oil (from an off-the-shelf, opened 1 quart container with approximately 25% atmospheric headspace; storage time unknown) was placed in a 30 mL vial at room temperature. 250 μL of 2-oxovaleric acid was added. The vial was shaken and allowed to stand at ambient temperature in laboratory lighting on the benchtop. No further treatment was done prior to the POV testing.
POV measurements were made on the sunflower oil before and after the 2-oxovaleric acid treatment. The untreated oil was also re-measured periodically for comparison, since opening of the bottle replenishes atmospheric headspace and can cause the POV of the bottle contents to rise. The % reduction was always calculated versus the most recent POV value on the untreated oil, and if multiple measurements were made, an averaged value (shown in parentheses) was used for the calculation.

[2] = POV of model perfume treated with AKG DiDeanol salt; conditions: 1.0% w/v
Procedure: A model perfume was made using 90/10 v/v ethanol/water as a solvent, and a mixture of orange, grapefruit, and bergamot oils as the perfume oil. The mixed citrus oil was loaded into the solvent at approximately 19.4% v/v (6 mL oil into 25 mL solvent). Approximately 200 mg (1.0% w/v) of the AKG DiDeanol salt was dissolved in 20 mL of the mixed citrus perfume, and POV measurements were taken as a function of time after the addition. An untreated perfume sample was handled similarly to the treated perfume and also tested, because the POV can rise rapidly with handling of the sample (opening the bottle, agitation, etc.).

[3] = Surface tension of aqueous solution, pendant drop method; format: physicochemical; conditions: 0.14 weight % solution in water; pure water 71.57 mN/m
Procedure: The measurement was made on a Kruss DSA100S Tensiometer by the pendant drop method. […] This concentration was chosen so the results could be compared to the literature value for known surfactant sodium dodecyl sulfate (SDS) at 5 mM, which is approximately 0.15 weight %.

[4] = Reduction of POV in sunflower oil using AKG-DiMeC12A; conditions: for POV of treated oil: 0.3062 g in 15 mL sunflower oil
Description: (§1) The mixture was allowed to stand on the benchtop in ambient laboratory light at room temperature, and POV measurements were taken periodically.

[5] = POV of spiked consumer product: Skin Cream; conditions: 1% (w/w); for POV of treated Skin Cream: spiked with oxidized limonene
Procedure: This Example reports the treatment of exemplary consumer product formulations. […] All of the samples had not been fragranced, so the POV was be associated with autooxidized base components. The five consumer product formulations were spiked with an extremely oxidized limonene that was produced in a photoreactor as a source of mixed limonene hydroperoxide isomers (the POV was 1434 mmol/L).
Sample Preparation: 40 mL (Sample #3) or 40 g (Samples #1, 2, 4 & 5) were each spiked with 0.4 mL of oxidized limonene and mixed until homogeneous. Half of each spiked consumer product sample was transferred to a second container, and treated as described in the table below with 0.5-1% (w/w) of a 2-oxocarboxylic acid ammonium salt, then mixed to homogeneity. […]

[6] = POV of mixed citrus oil treated with AKG-DiMeC12A salt; conditions: 1.0% w/v, within 72 hours (3 days) after addition
Description: In addition to the treatment done in a model perfume as described above, a similar experiment was done in mixed citrus oil. A sample of mixed citrus oil was made by combining lime, orange, grapefruit, lemon, mandarin, tangerine, and bergamot oils, so that a variety of terpene hydroperoxides would be present in the treated mixture being tested. […] An untreated mixed citrus oil sample was handled similarly to the treated oil and also tested, because the POV can rise rapidly with handling of the sample (opening the bottle, agitation, etc.).

[7] = Reduction of POV in model perfume using AKG-HEI; conditions: 1.0% w/v; 7 days after addition
Procedure: The mixed citrus oil was loaded into the solvent at approximately 16.7% v/v (40 mL oil into 200 mL solvent, 240 mL total perfume). Approximately 150 mg (1.0% w/v) of the AKG-HEI salt was dissolved in 15 mL of the mixed citrus perfume, and POV measurements were taken as a function of time after the addition. An untreated perfume sample was handled similarly to the treated perfume and also tested, because the POV can rise rapidly with handling of the sample (opening the bottle, agitation, etc.).

[8] = Reduction of POV in model perfume using PhPA-DiMeC10A; conditions: […] w/v; 7 days after addition
Procedure: The mixed citrus oil was loaded into the solvent at approximately 16.7% v/v (40 mL oil into 200 mL solvent, 240 mL total perfume). Approximately 164 mg (1.1% w/v) of the PhPA-DiMeC10A salt was dissolved in 15 mL of the mixed citrus perfume, and POV measurements were taken as a function of time after the addition. An untreated perfume sample was handled similarly to the treated perfume and also tested, because the POV can rise rapidly with handling of the sample (opening the bottle, agitation, etc.).

[9] = Reduction of POV in sunflower oil using DiMeC10A-PhPA; conditions: for POV of treated oil: 0.3032 g in 15 mL sunflower oil
Description: as §1

[10] = Reduction of POV in model perfume using oxaloacetic acid; conditions: 0.83% w/v; 24 hours after treatment
[11] = Reduction of POV in limonene using phenylglyoxylic acid; conditions: 200 mg in 20 mL, room temperature
Procedure: 20 mL of autoxidized limonene was placed in a 30 mL glass vial at room temperature, along with a stir bar and an argon gas blanket. 200 mg of phenylglyoxylic acid was added, which dissolved. The vial was shaken once and allowed to stand, while being monitored for POV value as a function of time.

[12] = Reduction of POV in citrus oil using pyruvic acid
Procedure: 50 mL of mixed citrus oils (orange, lemon, lime, mandarin, bergamot, and tangerine) were placed in a 100 round bottom flask at room temperature, along with a stir bar and an argon gas blanket.
A 4:1 v/v isopropanol/pyruvic acid solution was made. 20 mL of this pyruvic acid solution was dripped into the stirred citrus oils at a rate of 0.25 mL/minute via the use of a syringe pump.
When the addition was complete, 10 mL of water and 100 mg of anhydrous sodium carbonate was added to the flask, and the stirring was maintained. When the visible evolution of CO2 had stopped (about 2-4 minutes), the aqueous layer was removed with a pipette and discarded. POV measurements were made on the mixed citrus oil before and after the pyruvic acid treatment.

[13] = Reduction of POV in mixed citrus oil using α-oxo-2-furanacetic acid; conditions: for Treated POV: 400 mg in 20 mL mixed citrus oil; for POV reduction: vs untreated oil at same time
Procedure: 20 mL of mixed citrus oil was placed in a 30 mL glass vial at room temperature, along with a stir bar and an argon gas blanket. 400 mg of α-oxo-2-furanacetic acid was added. The vial was shaken once and allowed to stand, while being monitored for POV value as a function of time. […] In this way, the undissolved solid acts as a sink to maintain a steady, low concentration of α-oxo-2-furanacetic acid dissolved in the mixed citrus oil.
In this case, because the time between measurements was relatively long (days instead of minutes), there is the possibility that the untreated mixed citrus oil will oxidize further during the course of the experiment. Therefore, the POV of the treated oil was still compared with the POV of the untreated oil, but the measurement of the untreated oil was re-determined at each time point (rather than just a single, initial value being used).

[14] = Reduction of POV in model perfume using α-ketoglutaric acid; conditions: 1.2% w/v; 24 hours after treatment

CCCC(=O)C(=O)O [2-oxovaleric acid]
POV, single measurements ([1]; 23 hours): 4.95 mmol/L and 4.67 mmol/L
POV, single measurements ([1]; 46 hours): 5.34 mmol/L and 5.10 mmol/L
POV, single measurements ([1]; 15 days): 2.27 mmol/L and 2.05 mmol/L and 1.99 mmol/L

CN(C)CCO.CN(C)CCO.O=C(O)CCC(=O)C(=O)O [AKG DiDeanol]
POV Treated Perfume ([2]; 60 min): 5.95 mmol/L
POV Treated Perfume ([2]; 75 min): 5.66 mmol/L
POV Treated Perfume ([2]; 115 min): 4.96 mmol/L
POV Treated Perfume ([2]; 195 min): 3.20 mmol/L
POV Treated Perfume ([2]; 210 min): 3.08 mmol/L
POV Treated Perfume ([2]; 300 min (5 hours)): 2.31 mmol/L
POV Treated Perfume ([2]; 370 min): 1.73 mmol/L
POV Treated Perfume ([2]; 380 min): 1.72 mmol/L
POV Treated Perfume ([2]; […] (24 hours), indistinguishable from blank): 0.0 indistinguishable from mmol/L

CCCCCCCCCCCCN(C)C.CCCCCCCCCCCCN(C)C.O=C(O)CCC(=O)C(=O)O [AKG-DiMeC12A]
surface tension [3]: 32.08 mN/m
POV of treated oil ([4]; 50 minutes): 15.36 mmol/L
POV of treated oil ([4]; 1320 mins (22 hrs)): 12.68 mmol/L
POV of treated oil ([4]; 23 days): 3.05 mmol/L
% Reduction in POV ([4]; 50 minutes): 7.2%
% Reduction in POV ([4]; 1320 mins (22 hrs)): 23.5%
% Reduction in POV ([4]; 23 days): 83.6%
% Reduction in POV ([5]; 140 minutes): 56.7%
% Reduction in POV ([5]; 300 minutes (5 h)): 68.4%
% Reduction in POV ([5]; 26 hrs): 84.6%
% Reduction in POV ([5]; 4 days): 90.9%
% Reduction in POV ([5]; 8 days): 93.0%
% Reduction in POV ([5]; 15 days): 100.0%
POV of treated Skin Cream ([5]; 140 minutes): 6.06 mmol/L
POV of treated Skin Cream ([5]; 300 minutes (5 h)): 4.5 mmol/L
POV of treated Skin Cream ([5]; 26 hrs): 2.08 mmol/L
POV of treated Skin Cream ([5]; 4 days): 1.16 mmol/L
POV of treated Skin Cream ([5]; 8 days): 0.82 mmol/L
POV of treated Skin Cream ([5]; 15 days): 0 mmol/L
reduction in the POV [6]: 89.0%

O=C(O)CCC(=O)C(=O)O.O=C1NCCN1CCO.O=C1NCCN1CCO [AKG-HEI]
reduction in POV relative to untreated material [7]: 92.1%

CCCCCCCCCCN(C)C.O=C(O)C(=O)Cc1ccccc1 [DiMeC10A-PhPA]
reduction in POV relative to untreated material [8]: 87.2%
solubility in sunflower oil ([9]; 0.3032 g in 15 mL): majority of the salt dissolved, but some undissolved solid remained
POV of treated oil ([9]; 55 minutes): 3.78 mmol/L
POV of treated oil ([9]; 140 minutes, indistinguishable from BLANK): 0.00 mmol/L
POV of treated oil ([9]; 1320 mins (22 hrs), indistinguishable from BLANK): 0.00 mmol/L
POV of treated oil ([9]; 23 days, indistinguishable from BLANK): 0.00 mmol/L
% Reduction in POV ([9]; 55 minutes): 77.2%
% Reduction in POV ([9]; 140 minutes): 100%
% Reduction in POV ([9]; 1320 mins (22 hrs)): 100%
% Reduction in POV ([9]; 23 days): 100%

O=C(O)CC(=O)C(=O)O [oxaloacetic acid]
reduction in the POV of the formulated perfume [10]: complete reduction

O=C(O)C(=O)c1ccccc1 [phenylglyoxylic acid]
solubility in autoxidized limonene [11]: dissolved

CC(=O)C(=O)O [pyruvic acid]
POV after treatment ([12]; 50 mL mixed citrus oils, 20 mL 4:1 v/v isopropanol/pyruvic acid at 0.25 mL/minute, POV before treatment 27.261 mEq/L): 4.786 mEq./L
reduction in POV ([12]; after vs before pyruvic acid treatment): ~82%

O=C(O)C(=O)c1ccco1 [α-Oxo-2-furanacetic acid, α-oxo-2-furanacetic acid]
solubility in mixed citrus oil ([13]; 400 mg in 20 mL): majority of the added α-oxo-2-furanacetic acid did not dissolve
Treated POV ([13]; 2 days since addition): 18.566 mEq/L
Treated POV ([13]; 4 days): 17.193 mEq/L
Treated POV ([13]; 44 days): 1.106 mEq/L
POV reduction ([13]; 2 days): 26.8%
POV reduction ([13]; 4 days): 39.8%
POV reduction ([13]; 44 days): 96.2%

O=C(O)CCC(=O)C(=O)O [α-ketoglutaric acid]
reduction in the POV of the formulated perfume [14]: complete reduction
